Data reported in patent publication US20230085307A1, “PYRIDAZINONE COMPOUND AND HERBICIDE” (NISSAN CHEMICAL CORPORATION, priority 2019, published 2023).

What was measured:
barnyard grass [1] = experiment: Test Example 3: herbicidal effect by foliage application, Wagner pot (Table 18, symbol H); type: in vivo, barnyard grass (Echinochloa crus-galli)
Method in brief: (§1)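 Plants were sown in alluvial soil held under 0.1–0.5 cm standing water and grown 14 days in a greenhouse at 25–30 °C. An emulsifiable formulation, water-diluted to the set dose, was then sprayed onto the foliage, and effects were scored three weeks later using previously defined criteria.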

Chinese sprangletop = experiment: Test Example 3: herbicidal effect by foliage application, Wagner pot (Table 18, symbol D); type: in vivo, chinese sprangletop (Leptochloa chinensis)
Method in brief: as §1

rice flat sedge = experiment: Test Example 3: herbicidal effect by foliage application, Wagner pot (Table 18, symbol E); type: in vivo, rice flat sedge (Cyperus iria)
Method in brief: as §1

southern crabgrass [2] = experiment: Test Example 4: herbicidal effect by soil treatment (Table 19, symbol F); type: in vivo, southern crabgrass (Digitaria ciliaris); conditions: amount of applied herbicide 320 g/ha
Method in brief: (§2)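 Herbicidal effect was rated 3 weeks after treatment, using the scoring criteria of an earlier test. The compound, formulated as an emulsion and diluted in water to a set herbicide amount, had been sprayed uniformly on soil over freshly sown seeds. Growth took place in a greenhouse at 25° C. to 30° C.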

green foxtail [3] = experiment: Test Example 4: herbicidal effect by soil treatment (Table 19, symbol G); type: in vivo, green foxtail (Setaria viridis); conditions: amount of applied herbicide 320 g/ha
Method in brief: as §2

barnyard grass [4] = experiment: Test Example 4: herbicidal effect by soil treatment (Table 19, symbol H); type: in vivo, barnyard grass (Echinochloa crus-galli); conditions: amount of applied herbicide 320 g/ha
Method in brief: as §2

wild oat [5] = experiment: Test Example 4: herbicidal effect by soil treatment (Table 19, symbol I); type: in vivo, wild oat (Avena fatua); conditions: amount of applied herbicide 320 g/ha
Method in brief: as §2

blackgrass [6] = experiment: Test Example 4: herbicidal effect by soil treatment (Table 19, symbol J); type: in vivo, blackgrass (Alopecurus myosuroides); conditions: amount of applied herbicide 320 g/ha
Method in brief: as §2

Italian ryegrass [7] = experiment: Test Example 4: herbicidal effect by soil treatment (Table 19, symbol K); type: in vivo, Italian ryegrass (Lolium multiflorum); conditions: amount of applied herbicide 320 g/ha
Method in brief: as §2

windgrass [8] = experiment: Test Example 4: herbicidal effect by soil treatment (Table 19, symbol L); type: in vivo, windgrass (Apera spica-venti); conditions: amount of applied herbicide 320 g/ha
Method in brief: as §2

velvetleaf [9] = experiment: Test Example 4: herbicidal effect by soil treatment (Table 19, symbol M); type: in vivo, velvetleaf (Abutilon theophrasti); conditions: amount of applied herbicide 320 g/ha
Method in brief: as §2

redroot pigweed [10] = experiment: Test Example 4: herbicidal effect by soil treatment (Table 19, symbol N); type: in vivo, redroot pigweed (Amaranthus retroflexus); conditions: amount of applied herbicide 320 g/ha
Method in brief: as §2

lambsquarters [11] = experiment: Test Example 4: herbicidal effect by soil treatment (Table 19, symbol O); type: in vivo, lambsquarters (Chenopodium album); conditions: amount of applied herbicide 320 g/ha
Method in brief: as §2

false cleavers = experiment: Test Example 4: herbicidal effect by soil treatment (Table 19, symbol Q); type: in vivo, false cleavers (Galium spurium); conditions: amount of applied herbicide 320 g/ha
Source text: [Test Example 4] Herbicidal Effect Test by Soil Treatment
Sterilized diluvial soil was placed in a plastic box having a length of 21 cm, a width of 13 cm, and a depth of 7 cm. The seeds of each of southern crabgrass, green foxtail, barnyard grass, wild oat, blackgrass, Italian ryegrass, windgrass, velvetleaf, redroot pigweed, lambsquarters, chickweed, false cleavers, persian speedwell, corn, soybean, rice, wheat, beet, and rapeseed were sowed in a spot-like manner and covered with the soil having a thickness of about 1.5 cm. Subsequently, the emulsion agent of the compound of the present invention prepared according to Formulation Example 2 was diluted with water so as to achieve a predetermined herbicide amount, and the diluted emulsion agent was uniformly applied to the surface of the soil with a small-sized spray. The plastic box was placed in a greenhouse at 25° C. to 30° C. for growth of the plants. Three weeks after the herbicide application, the effect of the herbicide on each plant was evaluated according to the criteria of Test Example 1.

southern crabgrass [12] = experiment: Test Example 5: herbicidal effect by foliage application, plastic box (Table 20, symbol F); type: in vivo, southern crabgrass (Digitaria ciliaris); conditions: foliage application, 320 g/ha, three weeks after application
Method in brief: (§3)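 Foliar spray test: emulsion formulation diluted in water to a set application rate, sprayed onto 14-day-old plants raised in diluvial soil at 25° C to 30° C under glass. Both herbicidal effect and crop effect rated visually three weeks later.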

green foxtail [13] = experiment: Test Example 5: herbicidal effect by foliage application, plastic box (Table 20, symbol G); type: in vivo, green foxtail (Setaria viridis); conditions: foliage application, 320 g/ha, three weeks after application
Method in brief: as §3

barnyard grass [14] = experiment: Test Example 5: herbicidal effect by foliage application, plastic box (Table 20, symbol H); type: in vivo, barnyard grass (Echinochloa crus-galli); conditions: foliage application, 320 g/ha, three weeks after application
Method in brief: as §3

wild oat [15] = experiment: Test Example 5: herbicidal effect by foliage application, plastic box (Table 20, symbol I); type: in vivo, wild oat (Avena fatua); conditions: foliage application, 320 g/ha, three weeks after application
Method in brief: as §3

blackgrass [16] = experiment: Test Example 5: herbicidal effect by foliage application, plastic box (Table 20, symbol J); type: in vivo, blackgrass (Alopecurus myosuroides); conditions: foliage application, 320 g/ha, three weeks after application
Method in brief: as §3

Italian ryegrass [17] = experiment: Test Example 5: herbicidal effect by foliage application, plastic box (Table 20, symbol K); type: in vivo, Italian ryegrass (Lolium multiflorum); conditions: foliage application, 320 g/ha, three weeks after application
Method in brief: as §3

windgrass [18] = experiment: Test Example 5: herbicidal effect by foliage application, plastic box (Table 20, symbol L); type: in vivo, windgrass (Apera spica-venti); conditions: foliage application, 320 g/ha, three weeks after application
Method in brief: as §3

velvetleaf [19] = experiment: Test Example 5: herbicidal effect by foliage application, plastic box (Table 20, symbol M); type: in vivo, velvetleaf (Abutilon theophrasti); conditions: foliage application, 320 g/ha, three weeks after application
Method in brief: as §3

redroot pigweed [20] = experiment: Test Example 5: herbicidal effect by foliage application, plastic box (Table 20, symbol N); type: in vivo, redroot pigweed (Amaranthus retroflexus); conditions: foliage application, 320 g/ha, three weeks after application
Method in brief: as §3

lambsquarters [21] = experiment: Test Example 5: herbicidal effect by foliage application, plastic box (Table 20, symbol O); type: in vivo, lambsquarters (Chenopodium album); conditions: foliage application, 320 g/ha, three weeks after application
Method in brief: as §3

chickweed = experiment: Test Example 5: herbicidal effect by foliage application, plastic box (Table 20, symbol P); type: in vivo, common chickweed (Stellaria media); conditions: foliage application, 320 g/ha, three weeks after application
Method in brief: as §3

persian speedwell = experiment: Test Example 5: herbicidal effect by foliage application, plastic box (Table 20, symbol R); type: in vivo, Persian speedwell (Veronica persica); conditions: foliage application, 320 g/ha, three weeks after application
Method in brief: as §3

[22] = amount of applied herbicide 320 g/ha

Cn1ncc(O)c(-c2c(-c3ccc(F)cc3)sc3ccccc23)c1=O [1-001]
herbicidal effect on H (barnyard grass), rating 0-5 (barnyard grass [1]; 320 g/ha): 3 (Herbicidal rate of 40% or more and less than 70%) | herbicidal effect on D (Chinese sprangletop), rating 0-5 (Chinese sprangletop; 320 g/ha): 0 (Herbicidal rate of 5% or less (almost no effect)) | herbicidal effect on E (rice flat sedge), rating 0-5 (rice flat sedge; 320 g/ha): 5 (Herbicidal rate of 90% or more (almost completely withered)) | herbicidal effect rating, F: southern crabgrass (southern crabgrass [2]): 0 (Herbicidal rate of 5% or less (almost no effect)) | herbicidal effect rating, G: green foxtail (green foxtail [3]): 0 (Herbicidal rate of 5% or less (almost no effect)) | herbicidal effect rating, H: barnyard grass (barnyard grass [4]): 0 (Herbicidal rate of 5% or less (almost no effect)) | herbicidal effect rating, I: wild oat (wild oat [5]): 0 (Herbicidal rate of 5% or less (almost no effect)) | herbicidal effect rating, J: blackgrass (blackgrass [6]): 0 (Herbicidal rate of 5% or less (almost no effect)) | herbicidal effect rating, K: Italian ryegrass (Italian ryegrass [7]): 0 (Herbicidal rate of 5% or less (almost no effect)) | herbicidal effect rating, L: windgrass (windgrass [8]): 0 (Herbicidal rate of 5% or less (almost no effect)) | herbicidal effect rating, M: velvetleaf (velvetleaf [9]): 0 (Herbicidal rate of 5% or less (almost no effect)) | herbicidal effect rating, N: redroot pigweed (redroot pigweed [10]): 4 (Herbicidal rate of 70% or more and less than 90%) | herbicidal effect rating, O: lambsquarters (lambsquarters [11]): 0 (Herbicidal rate of 5% or less (almost no effect)) | herbicidal effect rating, Q: false cleavers (false cleavers): 0 (Herbicidal rate of 5% or less (almost no effect)) | herbicidal effect grade, F: southern crabgrass (southern crabgrass [12]): 0 (Herbicidal rate of 5% or less (almost no effect)) | herbicidal effect grade, G: green foxtail (green foxtail [13]): 0 (Herbicidal rate of 5% or less (almost no effect)) | herbicidal effect grade, H: barnyard grass (barnyard grass [14]): 0 (Herbicidal rate of 5% or less (almost no effect)) | herbicidal effect grade, I: wild oat (wild oat [15]): 0 (Herbicidal rate of 5% or less (almost no effect)) | herbicidal effect grade, J: blackgrass (blackgrass [16]): 0 (Herbicidal rate of 5% or less (almost no effect)) | herbicidal effect grade, K: Italian ryegrass (Italian ryegrass [17]): 0 (Herbicidal rate of 5% or less (almost no effect)) | herbicidal effect grade, L: windgrass (windgrass [18]): 0 (Herbicidal rate of 5% or less (almost no effect)) | herbicidal effect grade, M: velvetleaf (velvetleaf [19]): 4 (Herbicidal rate of 70% or more and less than 90%) | herbicidal effect grade, N: redroot pigweed (redroot pigweed [20]): 1 (Herbicidal rate of 5% or more and less than 20%) | herbicidal effect grade, O: lambsquarters (lambsquarters [21]): 2 (Herbicidal rate of 20% or more and less than 40%) | herbicidal effect grade, P: chickweed (chickweed): 5 (Herbicidal rate of 90% or more (almost completely withered)) | herbicidal effect grade, R: persian speedwell (persian speedwell): 3 (Herbicidal rate of 40% or more and less than 70%)

CSCCSc1ccc(-c2sc3ccc(F)cc3c2-c2c(O)c(C)nn(C)c2=O)cc1 [2-421]
herbicidal effect on H: barnyard grass (barnyard grass [1]; [22]): 5 (Herbicidal rate of 90% or more (almost completely withered)) | herbicidal effect on D: Chinese sprangletop (Chinese sprangletop; [22]): 2 (Herbicidal rate of 20% or more and less than 40%) | herbicidal effect on E: rice flat sedge (rice flat sedge; [22]): 5 (Herbicidal rate of 90% or more (almost completely withered)) | herbicidal effect, F: southern crabgrass (southern crabgrass [2]): 2 (Herbicidal rate of 20% or more and less than 40%) | herbicidal effect, G: green foxtail (green foxtail [3]): 3 (Herbicidal rate of 40% or more and less than 70%) | herbicidal effect, H: barnyard grass (barnyard grass [4]): 1 (Herbicidal rate of 5% or more and less than 20%) | herbicidal effect, I: wild oat (wild oat [5]): 0 (Herbicidal rate of 5% or less (almost no effect)) | herbicidal effect, J: blackgrass (blackgrass [6]): 0 (Herbicidal rate of 5% or less (almost no effect)) | herbicidal effect, K: Italian ryegrass (Italian ryegrass [7]): 0 (Herbicidal rate of 5% or less (almost no effect)) | herbicidal effect, L: windgrass (windgrass [8]): 0 (Herbicidal rate of 5% or less (almost no effect)) | herbicidal effect, M: velvetleaf (velvetleaf [9]): 2 (Herbicidal rate of 20% or more and less than 40%) | herbicidal effect, N: redroot pigweed (redroot pigweed [10]): 5 (Herbicidal rate of 90% or more (almost completely withered)) | herbicidal effect, O: lambsquarters (lambsquarters [11]): 1 (Herbicidal rate of 5% or more and less than 20%) | herbicidal effect, Q: false cleavers (false cleavers): 0 (Herbicidal rate of 5% or less (almost no effect)) | F: southern crabgrass, herbicidal effect grade (southern crabgrass [12]): 5 (Herbicidal rate of 90% or more (almost completely withered)) | G: green foxtail, herbicidal effect grade (green foxtail [13]): 5 (Herbicidal rate of 90% or more (almost completely withered)) | H: barnyard grass, herbicidal effect grade (barnyard grass [14]): 5 (Herbicidal rate of 90% or more (almost completely withered)) | I: wild oat, herbicidal effect grade (wild oat [15]): 5 (Herbicidal rate of 90% or more (almost completely withered)) | J: blackgrass, herbicidal effect grade (blackgrass [16]): 4 (Herbicidal rate of 70% or more and less than 90%) | K: Italian ryegrass, herbicidal effect grade (Italian ryegrass [17]): 3 (Herbicidal rate of 40% or more and less than 70%) | L: windgrass, herbicidal effect grade (windgrass [18]): 5 (Herbicidal rate of 90% or more (almost completely withered)) | M: velvetleaf, herbicidal effect grade (velvetleaf [19]): 3 (Herbicidal rate of 40% or more and less than 70%) | N: redroot pigweed, herbicidal effect grade (redroot pigweed [20]): 5 (Herbicidal rate of 90% or more (almost completely withered)) | O: lambsquarters, herbicidal effect grade (lambsquarters [21]): 4 (Herbicidal rate of 70% or more and less than 90%) | P: chickweed, herbicidal effect grade (chickweed): 5 (Herbicidal rate of 90% or more (almost completely withered)) | R: persian speedwell, herbicidal effect grade (persian speedwell): 5 (Herbicidal rate of 90% or more (almost completely withered))
